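Protocol summary: plate cells (96-well), add compound at 5 concentrations, incubate 48 h, interpolate endpoints linearly. GI50: concentration for 50% inhibition of growth. At the TGI there is no net growth.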
What was measured:
Test in all cases: DTP human tumour cell line panel, 48 h
[1] = test system: HCC-2998 colon
[2] = test system: A498 renal
[3] = test system: UO-31 renal
[4] = test system: M14 melanoma
[5] = test system: HCT-116 colon
[6] = test system: HCT-15 colon
[7] = test system: SK-OV-3 ovarian

C=C(C)[C@H](O)C(O)CC(C)[C@@H]1CCC23CC12CCC1[C@@]2(C)CCC(OC(C)=O)C(C)(C)C2CC(OC2OC(COC(C)=O)C(O)C(O)C2O)[C@]13C (stereo partly drawn)
TGI [1]: 12.4 µM
TGI [2]: 14.7 µM
TGI [3]: 14.5 µM
TGI [4]: 9.11 µM
TGI [5]: 9.27 µM
TGI [6]: 10.4 µM
TGI [7]: 14.3 µM

Cc1cccc2c1C/C(=C1\CCc3c(C)cccc31)C2=O
TGI [1]: > 100 µM
TGI [2]: > 100 µM
TGI [3]: > 100 µM
TGI [4]: > 100 µM
TGI [5]: > 100 µM
TGI [6]: > 100 µM
TGI [7]: > 100 µM

COC1=CC(=O)[C@]2(C)[C@H](C1=O)C(C)[C@H]2c1ccccc1 (stereo partly drawn)
TGI [1]: > 100 µM
TGI [2]: > 100 µM
TGI [3]: > 100 µM
TGI [4]: > 100 µM
TGI [6]: > 100 µM
TGI [7]: > 100 µM

COc1cc([C@@H]2OC(=O)C3C2C(=O)O[C@H]3c2cc(OC)c(OC)c(OC)c2)cc(OC)c1OC (stereo partly drawn)
TGI [1]: > 100 µM
TGI [2]: > 100 µM
TGI [3]: > 100 µM
TGI [4]: > 100 µM
TGI [5]: > 100 µM
TGI [6]: > 100 µM
TGI [7]: > 100 µM

CCOc1ccccc1NC(=O)C1=C(C)NC(C)=C(C(=O)Nc2ccccc2OCC)C1c1ccc(NC(C)=O)cc1
TGI [1]: 35.7 µM
TGI [2]: 88.9 µM
TGI [3]: > 100 µM
TGI [4]: > 100 µM
TGI [7]: 67.5 µM

CCOC(=O)NC(=O)c1cn(CCN2CCN(C(=O)NCCCCCCNC(=O)N3CCN(CCn4cc(C(=O)NC(=O)OCC)c(=O)n(CCN(CC)CC)c4=O)CC3)CC2)c(=O)n(CCC(CC)CC)c1=O
TGI [1]: > 100 µM
TGI [2]: > 100 µM
TGI [3]: > 100 µM
TGI [4]: > 100 µM
TGI [5]: > 100 µM
TGI [6]: > 100 µM
TGI [7]: > 100 µM

CC1=Nn2c(nnc2-c2ccc(N)cc2)NC(C)(C)C1
TGI [1]: > 100 µM
TGI [2]: > 100 µM
TGI [3]: > 100 µM
TGI [4]: > 100 µM
TGI [6]: > 100 µM
TGI [7]: > 100 µM

Cc1cc(=O)oc2cc(OCc3nc4ccccc4c(=O)[nH]3)ccc12
TGI [1]: > 100 µM
TGI [2]: > 100 µM
TGI [4]: > 100 µM
TGI [5]: > 100 µM
TGI [6]: > 100 µM
TGI [7]: > 100 µM

Cc1cccc2c1C(=O)OC2(C)c1cccc2ccccc12 (stereo not drawn)
TGI [1]: 50.9 µM
TGI [3]: > 100 µM
TGI [4]: 40.7 µM
TGI [6]: > 100 µM

NC(CCSC(F)F)C(=O)O (stereo not drawn)
TGI [1]: > 100 µM
TGI [3]: > 100 µM
TGI [4]: > 100 µM
TGI [5]: > 100 µM
TGI [7]: > 100 µM

CC12CC3CC(C1)CC(N=[N+]=[N-])(C3)C2
TGI [1]: > 100 µM
TGI [2]: > 100 µM
TGI [3]: > 100 µM
TGI [4]: > 100 µM
TGI [5]: > 100 µM
TGI [7]: > 100 µM

O=C(/C=C1/NC(=O)CS1)Nc1ccccc1
TGI [1]: > 100 µM
TGI [2]: > 100 µM
TGI [3]: > 100 µM
TGI [4]: > 100 µM
TGI [5]: > 100 µM
TGI [7]: > 100 µM

COc1cc([N+](=O)[O-])c(OC)cc1-c1nc2sc(Cl)cn2c1/C=N/NC(=N)N/N=C/c1c(-c2cc(OC)c([N+](=O)[O-])cc2OC)nc2sc(Cl)cn12
GI50 [1]: 1.69 µM
TGI [1]: 3.15 µM
GI50 [2]: 1.7 µM
TGI [2]: 3.13 µM
GI50 [4]: 1.91 µM
TGI [4]: 3.36 µM
GI50 [5]: 1.76 µM
TGI [5]: 3.15 µM
GI50 [6]: 4.54 µM
TGI [6]: 22.5 µM

C/C(=N\O)C(CN1CCCCC1)C(c1ccccc1)c1c(O)c2ccccc2oc1=O (stereo not drawn)
TGI [1]: > 100 µM
TGI [2]: > 100 µM
TGI [4]: > 100 µM
TGI [5]: > 100 µM
TGI [7]: > 100 µM

[C-]#[N+]C(C)(C)C[C@H]1CC(C)C2CCC(C)C3([N+]#[C-])CCC(=C)C1[C@H]23 (stereo partly drawn)
TGI [1]: 14.7 µM
TGI [2]: 23.9 µM
TGI [3]: 8.66 µM
TGI [4]: 9.93 µM
TGI [5]: 6.6 µM
TGI [7]: 45.3 µM

O=C(N/C(=C\c1ccc(Oc2ccc(Cl)c(Cl)c2)cc1)c1nc2ccccc2[nH]1)c1ccccc1
TGI [1]: 31.7 µM
TGI [3]: 27.6 µM
TGI [4]: 34.8 µM
TGI [6]: 66.6 µM
TGI [7]: 79.2 µM

COc1ccccc1/C=N/N=C(\N)NO
TGI [1]: 29.2 µM
TGI [2]: > 100 µM
TGI [3]: > 100 µM
TGI [5]: > 100 µM
TGI [6]: > 100 µM
TGI [7]: > 100 µM

COc1cc2cccc(NC(=O)c3cc(OC)c(OC)c(OC)c3Br)c2cc1OC
TGI [1]: 85.4 µM
TGI [2]: > 100 µM
TGI [3]: 24.2 µM
TGI [4]: 23.5 µM
TGI [5]: 36.6 µM
TGI [7]: 59.2 µM

C=CCN=C1NC(=O)C(CC(=O)Nc2ccc(C)cc2)S1 (stereo not drawn)
TGI [1]: > 100 µM
TGI [2]: > 100 µM
TGI [3]: > 100 µM
TGI [4]: > 100 µM
TGI [6]: > 100 µM
TGI [7]: > 100 µM

COc1cc(C(=O)CC2(O)C(=O)Nc3c(Cl)cc(Cl)cc32)ccc1O (stereo not drawn)
TGI [1]: 88.7 µM
TGI [3]: > 100 µM
TGI [4]: > 100 µM
TGI [6]: > 100 µM
TGI [7]: > 100 µM

COc1cc(/C=C2/C(=O)NC(Cc3cc(OC)c(OC)c(C)c3OC)C(=O)N2Cc2ccccc2)c(OC)c(C)c1OC (stereo not drawn)
TGI [1]: > 100 µM
TGI [2]: > 100 µM
TGI [3]: > 100 µM
TGI [4]: > 100 µM
TGI [5]: > 100 µM
TGI [7]: > 100 µM

Cc1ccc(C2=C(c3ccccc3)C(Br)(c3ccccc3)C(c3ccccc3)=C2c2ccc(C)cc2)cc1
TGI [2]: > 100 µM
TGI [3]: > 100 µM
TGI [4]: > 100 µM
TGI [5]: > 100 µM
TGI [6]: > 100 µM
TGI [7]: > 100 µM

Reference: PubChem BioAssay (NCI)
